Measured values from PubChem BioAssay AID488890 (Southern Research Specialized Biocontainment Screening …, 2010).
Results filed as inconclusive are left out. Activity calls are given as the source filed them. No rule for the calls is given here.

These molecules were tested on Mycobacterium tuberculosis non-replicating, growth inhibition (assay: growth inhibition of non-replicating M. tuberculosis (AID 488890)).

Structure (SMILES) | IC50
O=C(c1ccc(Br)o1)N1CCC(Cc2ccccc2)CC1 | 3.77 µM
CN(C)c1c2ccccc2nc2c(F)c(F)c(F)c(F)c12 | 5.75 µM
CCCn1nnnc1NCc1ccc(C(C)C)cc1 | 5.89 µM
Cc1cc(C)n2[nH]c(=O)c(N=Nc3cccc(Cl)c3)c2n1 | 4.13 µM
COc1cc(CNCCc2ccccc2)cc(Br)c1OCC(=O)Nc1ccccc1C | 8.58 µM
CCc1ccc(C(C)NC(=O)C2CCCO2)cc1 (centres undefined) | 8.61 µM
O=C(N/N=C/c1cccc2cccnc12)[C@H]1C[C@@H]1c1ccccc1 | 13.1 µM (inactive)
COc1ccc(-c2cc(O)cc(O)c2)cc1 | 6.15 µM
Cc1[nH][nH]c(=O)c1C(c1ccc(-c2ccc(F)cc2)o1)c1c(C)[nH][nH]c1=O | 8.5 µM
Sc1oc(-c2ccccc2)cc1C=Nc1ccccc1 | 26 µM (inactive)
COc1ccc(-c2nnc(NC(=O)c3ccc(S(=O)(=O)N4COCC4(C)C)cc3)o2)cc1 | 11.2 µM (inactive)
COC(=O)c1cc(-c2ccc(OC)cc2)on1 | 1.55 µM
O=Cc1ccnc(-c2ccc(OC(=O)c3ccco3)cc2)n1 | 18.2 µM (inactive)
Brc1c(-c2ccc3c(c2)OCO3)nc2ncccn12 | 1.1 µM
COc1cc(OC)cc(OC(=O)c2ccc3c(=O)n4c(nc3c2)CCC4)c1 | 4.95 µM
Cc1ccc2nc(/N=C(\N)NC(=O)NC3CCCCC3)nc(C)c2c1 | 8.34 µM
c1ccc(-c2noc(CC3CCCCC3)n2)nc1 | 1.18 µM
COc1ccc(CN=C(C#N)C2=C(O)c3ccccc3C2=O)cc1 | 8.56 µM
O=C(Nc1ccc(N2CCN(C(=O)c3cccs3)CC2)cc1)c1ccc([N+](=O)[O-])o1 | 0.35 µM
OCC1(CCOc2ccccc2)CCN(Cc2cc(Cl)ccc2O)CC1 | 24.1 µM (inactive)

Structure (SMILES) | IC50
O=C(N/N=C/c1ccc([N+](=O)[O-])o1)c1ccc(NS(=O)(=O)c2cccs2)cc1 | 9.88 µM
CC(=O)N1CCN(c2cc3c(cc2F)c(=O)c(C(=O)O)cn3C2CC2)CC1 | 1.42 µM
N=c1oc2ccc(Cl)cc2cc1C(=O)NC1CCCCCC1 | 11.6 µM (inactive)
O=C(Nc1ccc(-c2nc3ccccc3c(=O)o2)cc1)c1ccco1 | 0.35 µM
CC(C)C(=O)N1CCN(c2ccc(NC(=O)c3ccc([N+](=O)[O-])o3)cc2)CC1 | 1.24 µM
CCOc1cc(C=O)cc(N=Nc2cccc([N+](=O)[O-])c2)c1O | 1.31 µM
CCOC(=O)COc1ccc(C(=O)c2ccccc2)c(O)c1 | 1.24 µM
CSCCC(=O)N1CCCC(N2CCN(c3cccc(C(F)(F)F)c3)CC2)C1 (centres undefined) | 34.4 µM (inactive)
O=C(CN1CCC(NC(=O)c2cccc(F)c2)CC1)Nc1ccc(Br)cc1 | 31.9 µM (inactive)
O=C(c1ccccc1)n1c(=O)c(F)cn(COCCBr)c1=O | 21 µM (inactive)
COC(=O)c1ccc(CO/N=C/c2ccc(OC)cc2)o1 | 6.95 µM
CCc1ccc(OCC(=O)Nc2ccncc2)c(Br)c1 | 6.25 µM
O=C(Oc1cccc2cccnc12)c1ccc2c(c1)OCCO2 | 0.96 µM
CN1/C(=C\C(=O)COC(=O)C2COc3ccccc3O2)C(C)(C)c2ccccc21 (centres undefined) | 5.79 µM
Cc1ccsc1/C=N/NC(=O)c1ccncc1 | 2.05 µM
O=C(Nc1ccccn1)c1ccc([N+](=O)[O-])o1 | 0.77 µM
CCOC(=O)COc1cc(O)c2c(=O)cc(-c3ccccc3)oc2c1 | 0.44 µM
Cc1ccc(NC(=O)C2CC2c2ccccc2)cc1 (centres undefined) | 15 µM (inactive)
C/C(=N\NC(=O)c1ccccc1OCc1ccc(F)cc1)c1ccccn1 | 2.82 µM
O=C(OCc1nnc(-c2ccccc2)o1)c1ccc(Br)o1 | 9.14 µM

Structure (SMILES) | IC50
O=[N+]([O-])c1ccc(Nc2ccccc2)c2nonc12 | 2.87 µM
Cc1ccc(CN2CC(C(=O)OCc3ccccc3Cl)CC2=O)cc1 (centres undefined) | 8.11 µM
Cc1ccc(NC(=S)C2=C(O)c3sccc3N(C)S2(=O)=O)cc1 | 22.3 µM (inactive)
O=C(Nc1cccc([N+](=O)[O-])c1)C1COc2ccccc2O1 (centres undefined) | 21 µM (inactive)
O=C(CCS(=O)(=O)c1ccccc1)Nc1nc(-c2ccccn2)cs1 | 11.1 µM (inactive)
CC(=O)N(Cc1ccc(F)cc1)C1=C(NCCc2ccccc2)C(=O)c2ccccc2C1=O | 4.4 µM
CCOC(=O)c1ccc(NC2=CC(=O)C(=O)c3ccccc32)cc1 | 9.94 µM
S=c1c2c(nc3nc[nH]n13)CCC2 | 4.68 µM
Cc1ccc(CCC(=O)Nc2ccc(C)c(C)c2)o1 | 8.63 µM
O=C(c1ccc([N+](=O)[O-])o1)N1CCc2ccccc2C1 | 5.15 µM
O=c1ccn(-c2ccccc2)[nH]1 | 7.52 µM
Cc1ccc(C)c(-c2nnc(NC(=O)C3=COCCO3)o2)c1 | 23.1 µM (inactive)
C/C(=N/NC(=O)c1ccco1)c1ccc(Br)s1 | 23 µM (inactive)
CCc1ccc(N2C(=O)CC(N3CCC(C(=O)OC)CC3)C2=O)cc1 (centres undefined) | 34.6 µM (inactive)
Cc1cc(NC2CCCCC2)nc(NCc2ccccc2)n1 | 3.65 µM
Fc1ccc(-c2ccc(CNCc3ccccn3)o2)cc1Cl | 8.76 µM
O=C(NCc1ccc(F)cc1)c1ccc(Br)o1 | 0.51 µM
Cc1ccc(-c2cc(C(F)F)nc(S(C)(=O)=O)n2)cc1 | 6.96 µM
OC(CNCCc1ccc(C(F)(F)F)cc1)COc1ccc2ccccc2c1 (centres undefined) | 8.28 µM
